We go through 26 compounds from US20240238265A1 (priority 2020, published 2024).

Read-outs that look alike come from different tables or passages of the source.

Data set [1] deals with pseudotyped VSV expressing EBOV glycoprotein. Description: microbe, parasite or virus in culture. It is filed as cell-based, Ebola virus (EBOV). Conditions: read-out: EC50 (uM) Pseudotype Assays EBOV.
For data set [2], the system named is pseudotyped VSV expressing SUDV glycoprotein. Description: microbe, parasite or virus in culture. The conditions noted are these: read-out: EC50 (uM) Pseudotype Assays SUDV. Type of data set: cell-based, Sudan virus (SUDV).
For data set [3], the system named is pseudotyped VSV expressing BDBV glycoprotein. Nature of the data set: microbe, parasite or virus in culture. The conditions noted are these: Vesicular stomatitis virus, Vero, 24 h, read-out: EC50 (uM) Pseudotype Assays BDBV. Type of data set: cell-based, Bundibugyo virus (BDBV).
The nature of the next data set: in vitro. The conditions noted are these: African green monkey.
For data set [4], the system named is pseudotyped VSV expressing MARV glycoprotein. Nature of the data set: microbe, parasite or virus in culture. The conditions noted are these: Vesicular stomatitis virus, Vero, 24 h, read-out: EC50 (uM) Pseudotype Assays MARV. Type of data set: cell-based, Marburg virus (MARV).
For data set [5] the following is noted: 1 h, pH 7.4.
The conditions of data set [6]: 1 h, pH 7.4. This is another data set of the same source.
For data set [7] the following is noted: 1 h, pH 7.4. The source holds these as a separate data set.
The conditions of data set [8]: 1 h, pH 7.4. This is another data set of the same source.
Setting [9] is: Vesicular stomatitis virus, Vero, 24 h.

Broadly, the EC50 is the concentration at which the effect is half-maximal. With `CC12CC3CC(C(=S)N4CC[C@H](N)C(C)(C)C4)(C1)CC(c1ccccc1)(C3)C2` (mixture of isomers) [Example C1], the EC50 in [1] (Zaire ebolavirus, Vero, 24 h) amounted to 0.06 µM; in data set [2] (setting [9]) it was 0.035 µM; in data set [3], 0.085 µM.

`CC12CC3CC(C(=S)N[C@H]4CC[C@H](N)CC4)(C1)CC(c1ccccc1)(C3)C2` (mixture of isomers) [Example C2]: the concentration giving a half-maximal response (EC50) in data set [1] (Zaire ebolavirus, Vero, 24 h) worked out at 0.06 µM; in [2] (setting [9]), 0.07 µM; in data set [3], 0.085 µM.

Consider `CC12CC3CC(C(=S)N[C@H]4CN5CCC4CC5)(C1)CC(c1ccccc1)(C3)C2` (mixture of isomers) [Example C3], for which the EC50 in data set [1] (Zaire ebolavirus, Vero, 24 h) was found to be 0.17 µM; in [2] (setting [9]) it was 0.1 µM; in [3], 0.24 µM.

`CC1(C)CN(C(=O)C23CC4CC(CCl)(C2)CC(c2ccccc2)(C4)C3)CC[C@@H]1N` (mixture of isomers) [Example E2, rac-((S)-4-amino-3,3-dimethylpiperidin-1-yl)(3-(chloromethyl)-5-phenyladamantan-1-yl)methanone]: the CC50 in the data set “in vitro” stood at 36900 nM. Besides, the EC50 in [4] is greater than 1 µM; in data set [1] (Zaire ebolavirus, Vero, 24 h) it was 0.057 µM; in [2] (setting [9]) it was 0.165 µM; in data set [3], 0.35 µM.

For `N[C@H]1CC[C@H](NC(=O)C23CC4CC(Br)(C2)CC(c2ccccc2)(C4)C3)CC1` (mixture of isomers) [Example E3, rac-trans-N-(4-aminocyclohexyl)-3-bromo-5-phenyladamantane-1-carboxamide], in data set [5], the “Percent parent compound remaining at 60 minutes in liver microsomes, Human” value (“Percent parent compound remaining … Human” below) was 97.5%. The “Percent parent compound remaining at 60 minutes in liver microsomes, Monkey” value in data set [6] amounted to 91%. Also, the EC50 in [1] (Zaire ebolavirus, Vero, 24 h) was found to be 0.061 µM; in [2] (setting [9]), 0.34 µM; in [3] it was 0.19 µM. Besides, in [7], the “Percent parent compound remaining at 60 minutes in liver microsomes, Guinea Pig” value (“Percent parent compound remaining … Guinea Pig” for short) is given as 96%.

As to `CSCC12CC3CC(C(=O)N[C@H]4CC[C@H](N)CC4)(C1)CC(c1ccccc1)(C3)C2` (mixture of isomers) [Example E6, rac-trans-N-(4-aminocyclohexyl)-3-((methylthio)methyl)-5-phenyladamantane-1-carboxamide], the CC50 in “in vitro” was 34600 nM. In addition, the EC50 was greater than 1 µM in data set [4]; 0.05 µM in data set [1] (Zaire ebolavirus, Vero, 24 h); 0.75 µM in data set [2] (setting [9]); 0.6 µM in [3].

As for `N[C@H]1CC[C@H](NC(=O)C23CC4CC(CSc5ccccc5)(C2)CC(c2ccccc2)(C4)C3)CC1` (mixture of isomers) [Example E7, rac-trans-N-(4-aminocyclohexyl)-3-phenyl-5-((phenylthio)methyl)adamantane-1-carboxamide], the CC50 in the data set “in vitro” is 4750 nM. The EC50 was greater than 1 µM in data set [4]; 0.056 µM in [1] (Zaire ebolavirus, Vero, 24 h); greater than 1 µM in data set [2] (setting [9]); 1.21 µM in [3].

As for `CC1(C)CN(C(=O)C23CC4CC(CSc5ccccc5)(C2)CC(c2ccccc2)(C4)C3)CC[C@@H]1N` (mixture of isomers) [Example E8, rac-((S)-4-amino-3,3-dimethylpiperidin-1-yl)(3-phenyl-5-((phenylthio)methyl)adamantan-1-yl)methanone], the EC50 in [4] was greater than 1 µM; in data set [1] (Zaire ebolavirus, Vero, 24 h), 0.145 µM; in data set [2] (setting [9]), greater than 1 µM; in data set [3] it was greater than 1 µM.

Consider `CC1(C)CN(C(=S)[C@@]23C[C@H]4C[C@@](C)(C2)C[C@](c2ccccc2)(C4)C3)CC[C@@H]1N` [Example A1, ((S)-4-amino-3,3-dimethylpiperidin-1-yl)((1 S,3R,5R,7S)-3-methyl-5-phenyladamantan-1-yl)methanethione], for which the “Percent parent compound remaining … Human” value in data set [5] was 72%. In addition, the CC50 in “in vitro” was 3800 nM. Also, in data set [6], the “Percent parent compound remaining at 60 minutes in liver microsomes, Monkey” value stood at 19%. The EC50 in data set [4] is greater than 1 µM; in data set [1] (Zaire ebolavirus, Vero, 24 h), 0.061 µM; in data set [2] (setting [9]), 0.043 µM; in [3], 0.11 µM. In addition, the “Percent parent compound remaining … Guinea Pig” value in data set [7] is reported as 32%.

The compound `C[C@]12CC3CC(C(=S)N[C@H]4CN5CCC4CC5)(C1)C[C@@](c1ccccc1)(C3)C2` [Example A3] returned a CC50 in “in vitro” of 1770 nM. Also, the EC50 in [4] was greater than 1 µM; in data set [1] (Zaire ebolavirus, Vero, 24 h) it was 0.067 µM; in data set [2] (setting [9]), 0.08 µM; in [3], 0.29 µM.

In the case of `C[C@]12CC3CC(C(=S)N4CCC(N)CC4)(C1)C[C@@](c1ccccc1)(C3)C2` [Example A4], the CC50 in the data set “in vitro” turned out to be 4090 nM. The EC50 in data set [1] (Zaire ebolavirus, Vero, 24 h) worked out at 0.085 µM; in data set [2] (setting [9]), 0.04 µM; in [3] it was 0.06 µM.

With `C[C@]12CC3CC(C(=S)N[C@H]4CC[C@@H](N)CC4)(C1)C[C@@](c1ccccc1)(C3)C2` [Example A5], the EC50 in data set [1] (Zaire ebolavirus, Vero, 24 h) amounted to 0.12 µM; in data set [2] (setting [9]), 0.125 µM; in data set [3], 0.19 µM.

`C[C@]12CC3CC(C(=S)NC4CCNCC4)(C1)C[C@@](c1ccccc1)(C3)C2` [Example A6]: the CC50 in “in vitro” came to 4720 nM. Also, the EC50 was 0.064 µM in [1] (Zaire ebolavirus, Vero, 24 h); 0.08 µM in data set [2] (setting [9]); 0.085 µM in [3].

Take `C[C@]12CC3CC(C(=S)N[C@H]4CC[C@H](CN)CC4)(C1)C[C@@](c1ccccc1)(C3)C2` [Example A7]: the CC50 in “in vitro” came out at 2860 nM. Also, the EC50 in data set [1] (Zaire ebolavirus, Vero, 24 h) was found to be 0.075 µM; in [2] (setting [9]), 0.095 µM; in [3], 0.09 µM.

Regarding `CC1(C)CN(C(=S)C23CC4C[C@](C)(C2)C[C@@](c2ccccc2)(C4)C3)CC[C@@H]1N` [Example B1], the EC50 was 0.74 µM in data set [1] (Zaire ebolavirus, Vero, 24 h); 0.26 µM in data set [2] (setting [9]); 0.4 µM in data set [3].

`C[C@@]12CC3CC(C(=S)N[C@H]4CC[C@H](N)CC4)(C1)C[C@](c1ccccc1)(C3)C2` [Example B2] came in with a CC50 in “in vitro” of 3720 nM. Further, the EC50 in data set [1] (Zaire ebolavirus, Vero, 24 h) came to 0.09 µM; in [2] (setting [9]), 0.26 µM; in data set [3], 0.16 µM.

On to `C[C@@]12CC3CC(C(=S)N[C@H]4CN5CCC4CC5)(C1)C[C@](c1ccccc1)(C3)C2` [Example B3], for which the EC50 in data set [4] was greater than 1 µM; in data set [1] (Zaire ebolavirus, Vero, 24 h) it was 0.66 µM; in data set [2] (setting [9]), 0.36 µM; in data set [3] it was 0.31 µM.

`N[C@H]1CC[C@H](NC(=S)C2C3CC4CC2CC(c2ccccc2)(C4)C3)CC1` (stereo partly drawn) [Example D1, trans-N-(4-aminocyclohexyl)-5-phenyladamantane-2-carbothioamide]: the EC50 came out at 0.21 µM in data set [1] (Zaire ebolavirus, Vero, 24 h); 0.29 µM in data set [2] (setting [9]); 0.3 µM in data set [3].

`CC(C)CC1C2CC3(C(=O)N[C@H]4CC[C@H](N)CC4)CC1CC(c1ccccc1)(C2)C3` (stereo partly shown) [Example F4]: in “in vitro”, the CC50 came out at 5800 nM. For the same compound, the EC50 in [4] is 1.38 µM; in data set [1] (Zaire ebolavirus, Vero, 24 h) it was 0.016 µM; in [2] (setting [9]) it was 0.86 µM; in [3] it was 0.3 µM.

As to `CCC1C2CC3(C(=O)N4CC[C@H](N)C(C)(C)C4)CC1CC(c1ccccc1)(C2)C3` (stereo partly shown) [Example F5], the CC50 in the data set “in vitro” was 12300 nM. The concentration for a half-maximal effect (EC50) in [1] (Zaire ebolavirus, Vero, 24 h) is 0.046 µM; in [2] (setting [9]), 0.1 µM.

On to `CC1(O)C2CC3(C(=O)N[C@H]4CC[C@H](N)CC4)CC1CC(c1ccccc1)(C2)C3` (stereo partly drawn) [Example H1, trans-N-(4-aminocyclohexyl)-6-hydroxy-6-methyl-3-phenyladamantane-1-carboxamide], for which the EC50 in [1] (Zaire ebolavirus, Vero, 24 h) was greater than 1 µM; in data set [2] (setting [9]), greater than 1 µM.

For `CC1(O)C2CC3(C(=O)N[C@H]4CC[C@H](N)CC4)CC1CC(c1ccccc1)(C2)C3` (stereo partly drawn) [Example H2, trans-N-(4-aminocyclohexyl)-6-hydroxy-6-methyl-3-phenyladamantane-1-carboxamide], the EC50 in [1] and in [2] was greater than 1 µM throughout.

In turn, `CCC1(Cl)C2CC3(C(=O)N4CC[C@H](N)C(C)(C)C4)CC1CC(c1ccccc1)(C2)C3` (stereo partly drawn) [Example H3, ((S)-4-amino-3,3-dimethylpiperidin-1-yl)(6-chloro-6-ethyl-3-phenyladamantan-1-yl)methanone] showed a CC50 in “in vitro” of 14700 nM. The EC50 in data set [1] (Zaire ebolavirus, Vero, 24 h) was 0.063 µM; in data set [2] (setting [9]) it was 0.17 µM.

For the compound `N[C@H]1CC[C@H](NC(=O)C23CC4CC(c5ccccc5)(CC(C2)C4CCF)C3)CC1` (stereo partly drawn) [Example H4, trans-N-(4-aminocyclohexyl)-6-(2-fluoroethyl)-3-phenyladamantane-1-carboxamide], the “Percent parent compound remaining … Human” value in [5] is recorded as 81%. Moreover, the CC50 in the data set “in vitro” was determined as 25100 nM. The EC50 in data set [1] (Zaire ebolavirus, Vero, 24 h) came out at 0.014 µM; in data set [2] (setting [9]), 0.16 µM. Moreover, in data set [8], the “Percent parent compound remaining at 60 minutes in liver microsomes, Mouse” value was 39%. The “Percent parent compound remaining … Guinea Pig” value in data set [7] was determined as 80.5%.

Turning to `N[C@H]1CC[C@H](NC(=O)C23CC4CC(c5ccccc5)(CC(C2)C4CCCl)C3)CC1` (stereo partly drawn) [Example H5, trans-N-(4-aminocyclohexyl)-6-(2-chloroethyl)-3-phenyladamantane-1-carboxamide], the “Percent parent compound remaining … Human” value in [5] was determined as 85%. The same compound displayed a CC50 in the data set “in vitro” of 7260 nM. The EC50 turned out to be 0.01 µM in data set [1] (Zaire ebolavirus, Vero, 24 h) and 0.27 µM in data set [2] (setting [9]). In addition, the “Percent parent compound remaining at 60 minutes in liver microsomes, Mouse” value in data set [8] was found to be 35%. The “Percent parent compound remaining … Guinea Pig” value in [7] is 80.5%.

In the data set “in vitro”, `N[C@H]1CC[C@H](NC(=O)C23CC4CC(c5ccccc5)(CC(C2)C4CC(F)F)C3)CC1` (stereo partly drawn) [Example H6, trans-N-(4-aminocyclohexyl)-6-(2,2-difluoroethyl)-3-phenyladamantane-1-carboxamide] yielded a CC50 of 22200 nM. Also, the EC50 came out at 0.02 µM in data set [1] (Zaire ebolavirus, Vero, 24 h) and 0.18 µM in data set [2] (setting [9]).
